Measurements taken from PubChem BioAssay (NCI).
Where “and” joins values, the source holds several entries; their conditions need not be identical. Equal entries are not always repeated.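 Exposure lasted 48 hours, with cells grown in 96-well plates and compounds tested at five concentrations. TGI is the concentration that stops growth completely.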

Assays:
Test in all cases: DTP human tumour cell line panel, 48 h
COLO 205 colon = tested on: COLO 205 colon
DU-145 prostate = tested on: DU-145 prostate
HCT-15 colon = tested on: HCT-15 colon
HS 578T breast = tested on: HS 578T breast
HT29 colon = tested on: HT29 colon
LOX IMVI melanoma = tested on: LOX IMVI melanoma
MCF7 breast = tested on: MCF7 breast
MDA-N = tested on: MDA-N
MOLT-4 leukemia = tested on: MOLT-4 leukemia
OVCAR-5 ovarian = tested on: OVCAR-5 ovarian
PC-3 prostate = tested on: PC-3 prostate
SF-295 CNS = tested on: SF-295 CNS
SK-MEL-28 melanoma = tested on: SK-MEL-28 melanoma
SK-MEL-5 melanoma = tested on: SK-MEL-5 melanoma
SNB-75 CNS = tested on: SNB-75 CNS
SR leukemia = tested on: SR leukemia
U251 CNS = tested on: U251 CNS
UACC-257 melanoma = tested on: UACC-257 melanoma
UO-31 renal = tested on: UO-31 renal

| Compound | TGI (COLO 205 colon) | TGI (DU-145 prostate) | TGI (HCT-15 colon) | TGI (HS 578T breast) | TGI (HT29 colon) | TGI (LOX IMVI melanoma) | TGI (MCF7 breast) | TGI (MDA-N) | TGI (MOLT-4 leukemia) | TGI (OVCAR-5 ovarian) | TGI (PC-3 prostate) | TGI (SF-295 CNS) | TGI (SK-MEL-28 melanoma) | TGI (SK-MEL-5 melanoma) | TGI (SNB-75 CNS) | TGI (SR leukemia) | TGI (U251 CNS) | TGI (UACC-257 melanoma) | TGI (UO-31 renal) |
| --- | --- | --- | --- | --- | --- | --- | --- | --- | --- | --- | --- | --- | --- | --- | --- | --- | --- | --- | --- |
| CC(C)c1c(O[Si](C(C)C)(C(C)C)C(C)C)c2c3c(ccc4c3c1OC4(C)C)C(C)CC2 (stereo unspecified) | > 100 µM | > 100 µM | > 100 µM | > 100 µM | > 100 µM | > 100 µM | > 100 µM | > 100 µM | > 100 µM | > 100 µM | > 100 µM | > 100 µM | > 100 µM | > 100 µM | > 100 µM | > 100 µM | > 100 µM | > 100 µM | > 100 µM |
| CC1=C(C#N)C2C(=C(N)Oc3ccccc32)C(N)=N1 (stereo unspecified) | 67 µM | 60.9 µM | 41.4 µM | 72.1 µM | 87.7 µM | 81.7 µM | 62.9 µM | > 100 µM | > 100 µM | 91.6 µM | > 100 µM | > 100 µM |  | 49.5 µM | 64.1 µM | > 100 µM | > 100 µM | 69.6 µM | 41.2 µM |
| C/C1=C\[C@H](C)C[C@H](C)OC(=O)C[C@H](c2ccc(O)cc2)NC(=O)[C@H](Cc2ccc(O)c(Br)c2)N(C)C(=O)[C@H](C)NC(=O)[C@@H](C)C1 | > 25 µM | > 25 µM | > 25 µM | > 25 µM | > 25 µM | > 25 µM | > 25 µM | > 25 µM | > 25 µM | > 25 µM | > 25 µM | > 25 µM | > 25 µM | > 25 µM | > 25 µM | > 25 µM | > 25 µM |  | > 25 µM |
| Cc1cc2c(cc1C)C(=O)C1(C2)Cc2c(ccc(C)c2C)C1=O (stereo unspecified) | > 100 µM | > 100 µM | > 100 µM | > 100 µM |  | > 100 µM | > 100 µM | > 100 µM | > 100 µM | > 100 µM | > 100 µM | > 100 µM | > 100 µM | > 100 µM | > 100 µM | > 100 µM | > 100 µM | > 100 µM | > 100 µM |
| Cc1ccc(CC2(OCCN(C)C)CCC(C(C)(C)C)CC2)cc1 (stereo unspecified) | 3.98 µM and 3 µM | 15.1 µM and 17.1 µM | 14.9 µM and 15.4 µM | 28.4 µM and 21.2 µM | 5.15 µM and 5.9 µM | 3 µM and 3.97 µM | 7.74 µM and 8.45 µM | 6.96 µM and 5.28 µM | 4.11 µM and 4.8 µM | 14 µM and 13.9 µM | 13.7 µM and 15.2 µM | 9.86 µM and 9.5 µM | 4.08 µM and 4.04 µM | 2.94 µM and 2.97 µM | 21.9 µM and 20.3 µM | 4.67 µM and 5.58 µM | 6.39 µM and 10.2 µM | 7.65 µM and 4.74 µM | 14.6 µM and 19 µM |
| CN1C(=O)c2c(c3c4ccccc4n(C4OC(CO)C(O)C(O)C4O)c3c3[nH]c4ccccc4c23)C1=O (stereo unspecified) | 6.79 µM | 9.66 µM | 17.4 µM | 21.6 µM | 9.52 µM | 5.49 µM | 18.7 µM | 7.24 µM | 3.57 µM | 6.67 µM | 9.62 µM | 10.9 µM | 8.43 µM | 3.29 µM | 15.9 µM | 1.2 µM | 10.8 µM | 7.36 µM | 6.6 µM |
